Key:
PRMT1 [1] = molecular target: T1, PRMT1 (Homo sapiens, UniProt Q99873); test: PRMT1 Enzymatic Assay (LANCE TR-FRET, methylation of histone H4 at Arg3); format: biochemical; set-up: purchased SignalChem P365-380G; conditions: PRMT1 1.5 nM, SAM 1 μM, biotinylated histone H4 (1-21) 25 nM; read-out: PRMT-1 IC50
Description: In order to measure PRMT1 enzymatic activity the LANCE TR-FRET assay from PerkinElmer was used to follow the methylation of histone H4 at Arg3 using S-adenosyl-L-methionine (SAM) as the methyl group donor.
This enzymatic assay was performed in a 384 well, white, low volume plate (PerkinElmer, Catalog 6008289) with assay buffer consisting of 50 mM Hepes (pH 8) (Teknova, Catalog #H1090), 1 mM TCEP (Sigma, Catalog #C4706), and 0.003% Tween-20 (Thermo, Catalog #85114). Stock solutions of the test compounds were prepared in 100% DMSO (Sigma, Catalog #D2650) and serially diluted 1:3 using 100% DMSO. Compounds were additionally diluted 1:40 in assay buffer, and 2 uL/well were transferred to the assay plate. 4 uL/well (final concentration 1.5 nM) of PRMT1 protein (SignalChem, Catalog #P365-380G) diluted in assay buffer was added to the assay plate followed by a 15 min preincubation at room temperature. 4 uL/well of SAM (Sigma, Catalog #A7007) and biotinylated histone H4 (1-21) (AnaSpec, Catalog #62555) (final concentrations 1 μM and 25 nM, respectively) diluted in assay buffer were then added to the assay plate followed by a 1 hour reaction time. Final concentrations of PRMT1, SAM, and histone H4 (1-21) refer to a […].
Detection of methylated histone H4 (H4R^3me) was achieved by combining LANCE Ultra Europium-anti-H4R^3me antibody (PerkinElmer, Catalog #TRF04-14), LANCE Ultra ULight-anti-streptavidin antibody (PerkinElmer, Catalog #TRF0102), and sinefungin (Sigma, Catalog #S8559) (final concentrations 2 nM, 50 nM, and 100 μM respectively) in 1× LANCE detection buffer (PerkinElmer, Catalog #CR97-100) and adding L/well of the detection solution to the assay plate. Detection reagents were allowed to react for 1 hour at room temperature. Final concentrations in the detection solution refer to a L volume. The europium fluorescence signal and the ULight TR-FRET signal were measured using a BioTek Synergy Neo plate reader: excitation at 330 nm, emission at 620 nm and 665 nm respectively, and the ratio of the two signals (665 nm/620 nm) was used for curve fitting. IC50 values were calculated using a four-parameter logistic curve fit using Genedata Screener software.

PRMT1 [2] = molecular target: T1, PRMT1; test: PRMT1 RKO Cellular Target Engagement Assay (In-Cell Western, asymmetric di-methyl arginine); format: cell-based; conditions: RKO cells, 48 hr compound incubation; read-out: RKO IC50 (PRMT-1 Target Engagement)
Description: RKO cells were routinely maintained in EMEM media (ATCC, Catalog #30-2003) supplemented with 10% fetal bovine serum (Sigma, Catalog #F2442) using a humidified incubator (37° C., 5% CO2, and ambient O2).
In preparation for the In-Cell Western assay, cells were harvested and resuspended in EMEM media supplemented with 10% fetal bovine serum. Cells were seeded onto a 384 well, black, clear bottom, Poly-D-Lysine coated tissue culture plate (Greiner, Catalog #781946) at a density of 1,000 cells/well in a volume of 40 μL. The culture plate was incubated for 24 hr at 37° C. with 5% CO2 and ambient O2. Stock solutions of the test compounds were prepared in 100% DMSO (Sigma, Catalog #D2650) and serially diluted 1:3 using 100% DMSO. Compounds were additionally diluted 1:40 in culture medium, and 10 μL/well was transferred to the tissue culture plate. Following the compound addition the microplate was incubated at 37° C. for 48 hr.
The media was removed, the plate was washed with 1× PBS (Fisher Bioreagents, Catalog #BP399-20), and cells were fixed for 10 min using 30 μL/well of 4% paraformaldehyde (Electron Microscopy Sciences, Catalog #15710). The paraformaldehyde was removed, the plate was again washed with 1× PBS, and cells were permeabilized for 15 min using 30 μL/well of 1× PBS containing 0.5% Triton-X 100 (Sigma, Catalog #1001748095). The permeabilization buffer was removed, the plate was washed with 1× PBST (Boston BioProducts, Catalog #IBB-171X), and 50 μL/well of blocking buffer (LI-COR, Catalog #927-40000) was added followed by a 1 hour incubation at room temperature. The blocking buffer was removed, and 20 μL/well of anti-asymmetric di-methyl arginine antibody (Cell Signaling, Catalog #13522S) diluted 1:1000 in LI-COR blocking buffer was added to the plate and incubated overnight, in the dark at 4° C.
The primary antibody was then removed, and the plate was washed three times with 1× PBST. 20 μL/well of CellTag (LI-COR, Catalog #926-41090) and IRDye 800CW goat anti-rabbit IgG antibody (LI-COR, Catalog #926-32211), each diluted 1:500 in LI-COR blocking buffer supplemented with 0.1% Tween-20 (Thermo Scientific, Catalog #85114), were added to the plate. The plate was then incubated in the dark, at room temperature for 1 hour followed by three washes with 1× PBST and one wash with H2O. The IRDye secondary antibody signal (800 channel) and the CellTag signal (700 channel) were measured using a Licor Odyssey Imager, and the 800 channel signal was then normalized to the 700 channel signal. IC50 values were calculated using a four-parameter logistic curve fit using Genedata Screener software.

DOHH2 cells = test: DOHH2 Long Term Phenotypic Assay (7 days, Cell Titer-Glo viability); format: cell-based; conditions: Cell Titer-Glo 2.0
Description: DOHH2 cells were kindly provided by Michael Green (MDACC). The cells were routinely maintained in RPMI-1640 Medium (ATCC, Catalog #30-2001) supplemented with 10% fetal bovine serum (Sigma, Catalog #F2442), 100 units/mL penicillin and 100 μg/mL streptomycin (Gibco, Catalog #15140-122) in a humidified incubator (37° C., 5% CO2). Cells were seeded onto a white, CulturPlate-384 (Perkin Elmer, catalog #6007680) at a density of 250 cells per well in a volume of 50 μL. Stock solutions of the test compounds were prepared in 100% DMSO (Sigma, Catalog #D2650) and serially diluted 1:3 using 100% DMSO. Compounds were additionally diluted 1:33 in culture medium, and 10 μL/well was transferred to the tissue culture plate. Following the compound addition, the plate was incubated at 37° C. and 5% CO2 for 7 days. Cells were then mixed and a 30 μL volume was removed. Viability was assessed by a 30 μL addition of Cell Titer-Glo 2.0 (Promega, catalog #G9243). The plate was then shaken on an orbital shaker at 300 RPM for 10 minutes at room temperature, in the dark. Luminescence was measured using a PerkinElmer Envision™ plate reader. IC50 values were calculated using a four-parameter logistic curve fit using Genedata Screener software.

T1 sequence (Q99873 whole entry): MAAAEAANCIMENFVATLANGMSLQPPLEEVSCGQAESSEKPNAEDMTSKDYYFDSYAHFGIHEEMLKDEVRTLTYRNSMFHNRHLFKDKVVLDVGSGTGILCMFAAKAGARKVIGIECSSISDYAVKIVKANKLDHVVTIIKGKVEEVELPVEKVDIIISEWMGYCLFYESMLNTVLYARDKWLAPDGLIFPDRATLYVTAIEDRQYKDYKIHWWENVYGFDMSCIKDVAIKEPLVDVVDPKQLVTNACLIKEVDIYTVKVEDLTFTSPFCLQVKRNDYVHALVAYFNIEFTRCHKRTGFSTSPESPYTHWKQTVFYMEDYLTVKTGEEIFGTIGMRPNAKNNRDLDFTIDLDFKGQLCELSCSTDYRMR

SMILES	IC50 (PRMT1 [1]) [nM]	IC50 (PRMT1 [2]) [nM]	IC50 (DOHH2 cells; Homo sapiens, DOHH-2, 168 h) [nM]	IC50 (DOHH2 cells) [nM]
CNCCN(C)Cc1nn2c(c1C1CCC(COC)(COC)CC1)CN(C(=O)C(C)(C)C1CCC1)CC2 [Example 78, 1-(3-(4,4-bis(methoxy-methyl)cyclohexyl)-2-((methyl(2-(methylamino)-ethyl)amino)methyl)-6,7-dihydropyrazolo[1,5-a]-pyrazin-5(4H)-yl)-2-cyclobutyl-2-methylpropan-1-one]	68	192	154	
CNCCN(C)Cc1nn2c(c1C1CCC(COC)(COC)CC1)CN(C(=O)C1CCCCC1)CC2 [Example 51, (3-(4,4-bis(methoxymethyl)-cyclohexyl)-2-((methyl(2-(methylamino)ethyl)amino)-methyl)-6,7-dihydropyrazolo-[1,5-a]pyrazin-5(4H)-yl)-(cyclohexyl)methanone]	58	10000	75	
CNCCN(C)Cc1nn2c(c1C1CCC(COC)(COC)CC1)CN(C(=O)C1(C(C)C)CCC1)CC2 [Example 64, (3-(4,4-bis(methoxymethyl)-cyclohexyl)-2-((methyl(2-(methylamino)ethyl)amino)-methyl)-6,7-dihydropyrazolo-[1,5-a]pyrazin-5(4H)-yl)(1-isopropylcyclobutyl)-methanone]	112	2330	230	
CNCCN(C)Cc1nn2c(c1C1CCC(COC)(COC)CC1)CN(C(C)=O)CC2 [Example 55, 1-(3-(4,4-bis(methoxy-methyl)cyclohexyl)-2-((methyl(2-(methylamino)-ethyl)amino)methyl)-6,7-dihydropyrazolo[1,5-a]-pyrazin-5(4H)-yl)ethan-1-one]	70	1110	296	
CNCCN(C)Cc1nn2c(c1C1CCC(COC)(COC)CC1)CN(C(=O)C1(C)CCOC1)CC2 (stereo not drawn) [Example 76, (3-(4,4-bis(methoxymethyl)-cyclohexyl)-2-((methyl(2-(methylamino)ethyl)amino)-methyl)-6,7-dihydropyrazolo-[1,5-a]pyrazin-5(4H)-yl)(3-methyltetrahydrofuran-3-yl)-methanone]	86	363	94	
CNCCN(C)Cc1nn2c(c1C1CCC(COC)(COC)CC1)CN(C(=O)C1CCOC1(C)C)CC2 (stereo not drawn) [Example 73, (3-(4,4-bis(methoxymethyl)-cyclohexyl)-2-((methyl(2-(methylamino)ethyl)amino)-methyl)-6,7-dihydropyrazolo-[1,5-a]pyrazin-5(4H)-yl)(2,2-dimethyltetrahydrofuran-3-yl)methanone]	118	470	575	
CNCCN(C)Cc1nn2c(c1C1CCC(COC)(COC)CC1)CN(C(=O)C(C)(C)COC)CC2 [Example 54, 1-(3-(4,4-bis(methoxy-methyl)cyclohexyl)-2-((methyl(2-(methylamino)-ethyl)amino)methyl)-6,7-dihydropyrazolo[1,5-a]-pyrazin-5(4H)-yl)-3-methoxy-2,2-dimethylpropan-1-one]	103	203	293	
CNCCN(C)Cc1nn2c(c1C1CCC(COC)(COC)CC1)CN(C(=O)C1CC(C)(C)C1)CC2 [Example 77, (3-(4,4-bis(methoxymethyl)-cyclohexyl)-2-((methyl(2-(methylamino)ethyl)amino)-methyl)-6,7-dihydropyrazolo-[1,5-a]pyrazin-5(4H)-yl)(3,3-dimethylcyclobutyl)-methanone]	84	254		202
CNCCN(C)Cc1nn2c(c1C1CCC(COC)(COC)CC1)CN(C(=O)C1CCC(C)(C)O1)CC2 (stereo not drawn) [Example 79, (3-(4,4-bis(methoxymethyl)-cyclohexyl)-2-((methyl(2-(methylamino)ethyl)amino)-methyl)-6,7-dihydropyrazolo-[1,5-a]pyrazin-5(4H)-yl)(5,5-dimethyltetrahydrofuran-2-yl)methanone]	217	688	303	
CNCCN(C)Cc1nn2c(c1C1CCC(COC)(COC)CC1)CN(C(=O)CC#N)CC2 [Example 52, 3-(3-(4,4-bis(methoxy-methyl)cyclohexyl)-2-((methyl(2-(methylamino)-ethyl)amino)methyl)-6,7-dihydropyrazolo[1,5-a]-pyrazin-5(4H)-yl)-3-oxopropanenitrile]	71	163	514	
CNCCN(C)Cc1nn2c(c1C1CCC(COC)(COC)CC1)CN(C(=O)C(C)COC)CC2 (stereo not drawn) [Example 72, 1-(3-(4,4-bis(methoxy-methyl)cyclohexyl)-2-((methyl(2-(methylamino)-ethyl)amino)methyl)-6,7-dihydropyrazolo[1,5-a]-pyrazin-5(4H)-yl)-3-methoxy-2-methylpropan-1-one]	112	315	310	
CCC1(C(=O)N2CCn3nc(CN(C)CCNC)c(C4CCC(COC)(COC)CC4)c3C2)CCC1 [Example 67, (3-(4,4-bis(methoxymethyl)-cyclohexyl)-2-((methyl(2-(methylamino)ethyl)amino)-methyl)-6,7-dihydropyrazolo-[1,5-a]pyrazin-5(4H)-yl)(1-ethylcyclobutyl)methanone]	75	273	156	

— patent US20230416261A1, “ETHANEDIAMINE-HETEROCYCLE DERIVATIVES AS INHIBITORS OF PROTEIN ARGININE METHYLTRANSFERASES” (Board of Regents, The University of Texas System, priority 2021, published 2023)
